In ChEMBL document CHEMBL1201862, “PubChem BioAssay data set” (2004) one finds IC50, EC50 and AC50 data, which are given here for 6 molecules.

For experiment [1], the target named is Voltage-gated N-type calcium channel alpha-1B subunit/Amyloid beta A4 precursor protein-binding family A member 1 (Homo sapiens, UniProt Q00975+Q02410). In kind it is protein assay.
Experiment [2] concerns the target T1, Tyrosine-protein phosphatase non-receptor type 22 (Homo sapiens, UniProt Q9Y2R2).
T1 sequence (Q9Y2R2 whole entry): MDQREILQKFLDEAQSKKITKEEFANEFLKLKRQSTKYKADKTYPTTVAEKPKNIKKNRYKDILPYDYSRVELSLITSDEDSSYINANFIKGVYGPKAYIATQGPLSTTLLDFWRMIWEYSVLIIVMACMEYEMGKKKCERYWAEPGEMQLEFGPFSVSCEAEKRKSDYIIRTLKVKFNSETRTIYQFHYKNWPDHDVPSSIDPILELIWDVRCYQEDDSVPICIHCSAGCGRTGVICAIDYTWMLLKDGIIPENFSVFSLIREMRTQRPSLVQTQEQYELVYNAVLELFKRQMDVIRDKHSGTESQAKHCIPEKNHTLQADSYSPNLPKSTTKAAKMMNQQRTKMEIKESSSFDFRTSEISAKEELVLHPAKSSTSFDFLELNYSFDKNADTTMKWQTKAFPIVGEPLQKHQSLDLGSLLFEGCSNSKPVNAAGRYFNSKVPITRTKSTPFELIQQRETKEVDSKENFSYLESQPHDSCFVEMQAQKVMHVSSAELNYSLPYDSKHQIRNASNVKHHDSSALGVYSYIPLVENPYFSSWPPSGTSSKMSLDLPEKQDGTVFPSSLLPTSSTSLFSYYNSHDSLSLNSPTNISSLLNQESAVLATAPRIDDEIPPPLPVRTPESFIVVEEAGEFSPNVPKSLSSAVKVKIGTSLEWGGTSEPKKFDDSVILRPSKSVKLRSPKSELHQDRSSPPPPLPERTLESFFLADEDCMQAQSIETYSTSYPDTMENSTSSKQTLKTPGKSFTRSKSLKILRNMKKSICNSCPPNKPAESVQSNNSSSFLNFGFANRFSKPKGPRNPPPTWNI
Kind of experiment: SAR LYP1 Fluorescent Assay using OMFP substrate for In Vitro dose response studies - Set 2. [Related pubchem assays (depositor defined):AID1779, AID1784, AID2140, AID449726, AID488869]. In kind it is functional.

Experiment [3] addresses Estrogen receptor beta (Homo sapiens, UniProt Q92731). Kind of experiment: blockers of SRC-3 recruitment to ERβ – biochemical, ELISA, streptavidin-HRP readout, orthogonal assay, confirmation (AID 1060). A general note: In an ELISA, binding on a coated surface is turned into a signal by an enzyme label.
In experiment [4] the target is T2, High affinity choline transporter 1 (Homo sapiens, UniProt Q9GZV3).
T2 sequence (Q9GZV3 whole entry): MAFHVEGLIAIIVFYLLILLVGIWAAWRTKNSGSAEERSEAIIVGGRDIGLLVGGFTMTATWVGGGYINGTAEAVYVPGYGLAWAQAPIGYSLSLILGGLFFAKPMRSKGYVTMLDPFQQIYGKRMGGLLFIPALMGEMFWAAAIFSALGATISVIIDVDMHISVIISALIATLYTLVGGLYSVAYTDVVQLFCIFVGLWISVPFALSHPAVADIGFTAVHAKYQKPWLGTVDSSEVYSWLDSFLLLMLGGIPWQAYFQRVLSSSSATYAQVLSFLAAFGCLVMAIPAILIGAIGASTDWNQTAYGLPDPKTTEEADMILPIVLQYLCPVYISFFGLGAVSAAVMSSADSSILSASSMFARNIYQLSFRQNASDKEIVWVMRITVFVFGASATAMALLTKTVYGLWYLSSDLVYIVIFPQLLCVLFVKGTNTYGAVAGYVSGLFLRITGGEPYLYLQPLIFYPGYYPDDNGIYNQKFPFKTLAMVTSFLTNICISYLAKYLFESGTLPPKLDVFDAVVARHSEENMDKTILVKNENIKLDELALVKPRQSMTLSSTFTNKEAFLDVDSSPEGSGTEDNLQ
Put plainly: human choline transporter blockers, potency – cell-based, 5-point CRC, membrane potential dye, dose response (AID 504840). In kind it is functional.

The subject of experiment [5] is BJ. Kind of experiment: BJ-TERT fibroblast viability loss – cell-based, RAS-independent, luminescence, dose response (AID 1933). In kind it is functional. As to conditions: Homo sapiens.
The target of experiment [6] is T3, DNA repair and recombination protein RAD54-like (Homo sapiens, UniProt Q92698).
T3 sequence (Q92698 whole entry): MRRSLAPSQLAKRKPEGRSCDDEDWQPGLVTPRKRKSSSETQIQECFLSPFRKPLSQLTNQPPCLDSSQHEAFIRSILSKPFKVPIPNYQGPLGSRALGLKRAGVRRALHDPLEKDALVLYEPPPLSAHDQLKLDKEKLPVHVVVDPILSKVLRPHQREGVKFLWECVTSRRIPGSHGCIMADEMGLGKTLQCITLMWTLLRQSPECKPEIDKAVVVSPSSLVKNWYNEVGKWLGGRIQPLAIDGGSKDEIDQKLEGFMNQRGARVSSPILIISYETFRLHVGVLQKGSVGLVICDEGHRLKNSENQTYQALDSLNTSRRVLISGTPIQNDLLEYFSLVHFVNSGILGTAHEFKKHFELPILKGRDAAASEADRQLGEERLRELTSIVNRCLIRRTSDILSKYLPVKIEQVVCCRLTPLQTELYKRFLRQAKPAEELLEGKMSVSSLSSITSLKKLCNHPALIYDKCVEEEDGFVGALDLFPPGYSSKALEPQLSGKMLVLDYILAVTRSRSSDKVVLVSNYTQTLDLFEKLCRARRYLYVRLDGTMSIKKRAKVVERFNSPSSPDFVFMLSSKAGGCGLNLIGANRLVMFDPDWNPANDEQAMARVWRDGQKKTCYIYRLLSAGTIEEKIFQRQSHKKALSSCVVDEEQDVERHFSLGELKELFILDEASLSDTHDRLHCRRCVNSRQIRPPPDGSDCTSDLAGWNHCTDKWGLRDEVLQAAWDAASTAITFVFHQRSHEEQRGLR
Kind of experiment: RAD54 Holliday junction migration blockers – biochemical, fluorescence, cherry-picked samples, dose series, confirmation (AID 651657). In kind it is functional.

Experiment [7] concerns the target Troponin, cardiac muscle (Homo sapiens, UniProt P19429+P45379+P63316). Kind of experiment: Fluorescence-based biochemical high throughput dose response assay for activators of the calcium sensitivity of cardiac Regulated Thin Filaments (RTF). [Related pubchem assays (depositor defined):AID493008, AID493018, AID504382, AID504383]. In kind it is protein-complex assay.

The target of experiment [8] is Keap1/Nrf2 (Homo sapiens, UniProt Q14145). Kind of experiment: disruptors of Keap1 binding to Nrf2 peptide – biochemical, fluorescence polarization, cherry-picked samples, dose response (AID 588683). Background: Polarisation of emitted light reports the rotation of a fluorescent probe.
Chain of Keap1/Nrf2 (Q16236 whole entry): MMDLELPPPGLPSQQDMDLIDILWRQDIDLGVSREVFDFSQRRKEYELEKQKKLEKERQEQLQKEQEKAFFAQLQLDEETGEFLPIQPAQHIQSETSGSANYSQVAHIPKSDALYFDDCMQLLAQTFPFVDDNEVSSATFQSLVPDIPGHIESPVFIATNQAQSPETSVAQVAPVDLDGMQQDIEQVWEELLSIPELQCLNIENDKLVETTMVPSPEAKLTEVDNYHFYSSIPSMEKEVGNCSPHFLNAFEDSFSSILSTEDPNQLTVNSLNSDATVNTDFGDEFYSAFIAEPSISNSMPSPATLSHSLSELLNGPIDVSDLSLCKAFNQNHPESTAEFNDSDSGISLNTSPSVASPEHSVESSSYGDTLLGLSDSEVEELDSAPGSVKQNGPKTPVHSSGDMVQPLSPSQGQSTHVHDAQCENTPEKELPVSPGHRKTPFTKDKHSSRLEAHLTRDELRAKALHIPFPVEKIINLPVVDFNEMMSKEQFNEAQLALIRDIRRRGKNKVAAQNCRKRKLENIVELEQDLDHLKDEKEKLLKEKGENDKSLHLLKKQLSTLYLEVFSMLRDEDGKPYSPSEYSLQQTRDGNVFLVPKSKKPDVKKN
Chain of Keap1/Nrf2 (Q14145 whole entry): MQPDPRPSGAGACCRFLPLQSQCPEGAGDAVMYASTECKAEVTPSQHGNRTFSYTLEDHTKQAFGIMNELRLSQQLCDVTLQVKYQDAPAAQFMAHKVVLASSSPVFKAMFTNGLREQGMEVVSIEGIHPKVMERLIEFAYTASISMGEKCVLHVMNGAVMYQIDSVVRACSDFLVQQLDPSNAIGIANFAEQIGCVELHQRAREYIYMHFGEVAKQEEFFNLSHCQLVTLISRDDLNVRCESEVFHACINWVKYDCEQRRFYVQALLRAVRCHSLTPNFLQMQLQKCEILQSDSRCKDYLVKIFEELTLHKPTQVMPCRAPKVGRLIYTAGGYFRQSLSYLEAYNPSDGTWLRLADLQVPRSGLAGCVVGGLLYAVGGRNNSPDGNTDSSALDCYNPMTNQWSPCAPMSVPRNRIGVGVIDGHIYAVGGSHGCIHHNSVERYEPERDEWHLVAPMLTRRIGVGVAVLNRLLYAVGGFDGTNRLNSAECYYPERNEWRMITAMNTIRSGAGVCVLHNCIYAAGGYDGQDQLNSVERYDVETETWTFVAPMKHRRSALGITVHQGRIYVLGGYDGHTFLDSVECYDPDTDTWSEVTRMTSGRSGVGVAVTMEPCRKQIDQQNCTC

Active and inactive are the calls of the source.

Chain of Estrogen receptor beta (Q92731 whole entry): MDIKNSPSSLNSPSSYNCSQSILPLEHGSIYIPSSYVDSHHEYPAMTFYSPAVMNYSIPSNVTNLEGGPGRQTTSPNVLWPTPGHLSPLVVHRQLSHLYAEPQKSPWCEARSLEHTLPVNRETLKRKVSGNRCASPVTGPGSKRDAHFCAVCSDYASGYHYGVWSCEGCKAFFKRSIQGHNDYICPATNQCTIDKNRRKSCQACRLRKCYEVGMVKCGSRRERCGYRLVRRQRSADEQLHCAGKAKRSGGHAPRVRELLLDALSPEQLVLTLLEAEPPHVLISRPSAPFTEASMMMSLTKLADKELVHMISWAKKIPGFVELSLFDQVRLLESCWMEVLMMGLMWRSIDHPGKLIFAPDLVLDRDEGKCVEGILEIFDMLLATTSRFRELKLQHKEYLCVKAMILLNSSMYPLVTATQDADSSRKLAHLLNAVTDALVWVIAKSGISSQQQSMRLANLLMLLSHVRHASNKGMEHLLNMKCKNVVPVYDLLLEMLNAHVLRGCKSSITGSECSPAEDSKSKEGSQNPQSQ
Chain of Voltage-gated N-type calcium channel alpha-1B subunit/Amyloid beta A4 precursor protein-binding family A member 1 (Q00975 whole entry): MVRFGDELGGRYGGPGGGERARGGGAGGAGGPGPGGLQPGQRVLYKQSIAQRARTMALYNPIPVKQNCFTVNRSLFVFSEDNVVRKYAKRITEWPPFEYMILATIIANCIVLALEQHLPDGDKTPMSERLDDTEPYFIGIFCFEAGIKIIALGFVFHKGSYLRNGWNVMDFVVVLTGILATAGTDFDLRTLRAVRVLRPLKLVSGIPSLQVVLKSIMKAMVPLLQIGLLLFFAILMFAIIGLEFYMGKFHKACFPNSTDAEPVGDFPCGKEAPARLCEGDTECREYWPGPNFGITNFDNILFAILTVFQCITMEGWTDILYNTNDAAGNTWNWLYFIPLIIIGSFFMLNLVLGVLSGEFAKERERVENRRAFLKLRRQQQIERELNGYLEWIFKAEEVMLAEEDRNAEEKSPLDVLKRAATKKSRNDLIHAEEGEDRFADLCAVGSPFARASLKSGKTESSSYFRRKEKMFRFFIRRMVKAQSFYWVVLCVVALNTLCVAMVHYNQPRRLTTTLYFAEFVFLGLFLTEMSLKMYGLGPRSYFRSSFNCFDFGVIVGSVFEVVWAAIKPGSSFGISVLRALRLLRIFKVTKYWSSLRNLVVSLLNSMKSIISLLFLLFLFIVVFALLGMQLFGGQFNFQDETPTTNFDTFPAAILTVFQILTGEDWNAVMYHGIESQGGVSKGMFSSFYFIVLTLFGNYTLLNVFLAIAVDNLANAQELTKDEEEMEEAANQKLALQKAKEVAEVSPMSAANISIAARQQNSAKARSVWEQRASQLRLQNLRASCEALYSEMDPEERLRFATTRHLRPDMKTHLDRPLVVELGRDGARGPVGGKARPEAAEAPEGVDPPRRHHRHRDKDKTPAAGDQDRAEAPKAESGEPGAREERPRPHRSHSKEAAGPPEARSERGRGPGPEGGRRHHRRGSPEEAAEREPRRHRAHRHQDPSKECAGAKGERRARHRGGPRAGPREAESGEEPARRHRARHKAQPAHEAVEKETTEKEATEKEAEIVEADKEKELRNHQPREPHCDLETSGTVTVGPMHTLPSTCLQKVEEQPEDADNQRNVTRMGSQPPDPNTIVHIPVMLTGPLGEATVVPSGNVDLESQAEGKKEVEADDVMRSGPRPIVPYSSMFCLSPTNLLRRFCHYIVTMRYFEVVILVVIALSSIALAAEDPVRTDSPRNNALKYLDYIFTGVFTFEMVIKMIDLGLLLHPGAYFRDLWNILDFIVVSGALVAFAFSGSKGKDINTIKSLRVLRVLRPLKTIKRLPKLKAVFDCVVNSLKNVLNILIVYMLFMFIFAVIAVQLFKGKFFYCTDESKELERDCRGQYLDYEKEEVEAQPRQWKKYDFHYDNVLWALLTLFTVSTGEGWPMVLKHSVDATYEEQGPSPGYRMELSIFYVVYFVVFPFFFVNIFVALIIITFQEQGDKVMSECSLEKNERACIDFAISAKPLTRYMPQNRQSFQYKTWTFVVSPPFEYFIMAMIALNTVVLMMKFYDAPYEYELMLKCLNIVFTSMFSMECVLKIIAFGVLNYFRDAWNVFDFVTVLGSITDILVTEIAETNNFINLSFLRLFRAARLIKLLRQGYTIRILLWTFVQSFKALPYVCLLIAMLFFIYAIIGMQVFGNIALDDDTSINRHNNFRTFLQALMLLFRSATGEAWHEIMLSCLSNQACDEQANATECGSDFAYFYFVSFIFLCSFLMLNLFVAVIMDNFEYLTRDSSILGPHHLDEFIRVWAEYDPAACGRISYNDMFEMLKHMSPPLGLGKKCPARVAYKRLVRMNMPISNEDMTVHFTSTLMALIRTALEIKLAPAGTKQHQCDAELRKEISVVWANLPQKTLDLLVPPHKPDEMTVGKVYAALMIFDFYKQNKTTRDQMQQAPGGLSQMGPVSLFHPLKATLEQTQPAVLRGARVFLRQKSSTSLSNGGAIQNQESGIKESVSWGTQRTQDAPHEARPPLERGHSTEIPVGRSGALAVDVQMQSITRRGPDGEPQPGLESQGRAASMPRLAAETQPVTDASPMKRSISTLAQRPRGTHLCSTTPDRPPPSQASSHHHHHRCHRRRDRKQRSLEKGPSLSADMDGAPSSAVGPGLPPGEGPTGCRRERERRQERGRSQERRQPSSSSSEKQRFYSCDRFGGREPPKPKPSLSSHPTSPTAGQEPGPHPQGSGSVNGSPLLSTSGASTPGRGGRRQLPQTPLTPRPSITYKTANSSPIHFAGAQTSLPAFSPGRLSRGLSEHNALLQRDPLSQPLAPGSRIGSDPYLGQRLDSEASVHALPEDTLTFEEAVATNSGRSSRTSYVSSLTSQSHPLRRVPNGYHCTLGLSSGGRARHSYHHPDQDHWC
Chain of Voltage-gated N-type calcium channel alpha-1B subunit/Amyloid beta A4 precursor protein-binding family A member 1 (Q02410 whole entry): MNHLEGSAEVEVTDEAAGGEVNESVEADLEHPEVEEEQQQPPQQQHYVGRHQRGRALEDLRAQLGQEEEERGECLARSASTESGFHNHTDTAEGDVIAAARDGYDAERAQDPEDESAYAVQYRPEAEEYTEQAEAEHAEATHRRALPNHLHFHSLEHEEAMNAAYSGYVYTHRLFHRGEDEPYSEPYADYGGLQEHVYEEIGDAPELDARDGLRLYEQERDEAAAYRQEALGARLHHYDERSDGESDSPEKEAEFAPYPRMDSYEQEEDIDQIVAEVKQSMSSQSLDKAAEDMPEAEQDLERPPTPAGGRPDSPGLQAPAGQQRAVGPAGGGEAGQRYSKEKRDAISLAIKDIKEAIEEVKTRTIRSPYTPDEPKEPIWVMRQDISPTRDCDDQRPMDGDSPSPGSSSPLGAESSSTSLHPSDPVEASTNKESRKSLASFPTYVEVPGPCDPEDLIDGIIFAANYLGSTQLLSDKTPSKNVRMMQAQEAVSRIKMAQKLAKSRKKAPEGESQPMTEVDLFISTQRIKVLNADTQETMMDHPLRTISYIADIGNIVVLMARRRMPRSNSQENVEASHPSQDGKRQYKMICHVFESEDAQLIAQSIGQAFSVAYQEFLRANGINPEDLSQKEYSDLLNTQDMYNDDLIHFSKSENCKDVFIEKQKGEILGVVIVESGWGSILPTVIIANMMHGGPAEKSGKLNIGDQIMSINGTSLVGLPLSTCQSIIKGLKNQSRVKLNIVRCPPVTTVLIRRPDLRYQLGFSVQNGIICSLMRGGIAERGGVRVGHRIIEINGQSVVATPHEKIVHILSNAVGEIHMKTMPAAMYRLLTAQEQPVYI

As usually defined, the IC50 is the midpoint of a concentration-inhibition curve. Regarding `O=C(O)COc1ccc(/C=N/NC(=O)c2ccc(-c3csc(Nc4ccc(Cl)cc4)n3)cc2)cc1`, the IC50 in experiment [1] is > 50000 nM (inactive); in experiment [2], 1240 nM (active). For `COc1ccc(C(=O)Nc2nc3c(s2)Cc2cc(OC)ccc2-3)cc1`, in experiment [3], the IC50 is < 23 nM (not active). In the case of `CC(/C=C1\SC(=S)N(NS(=O)(=O)c2ccccc2)C1=O)=C\c1ccccc1`, the IC50 in experiment [4] is 9120 nM (active). For orientation: EC50 means the concentration at which the effect is half-maximal. With `CCN1/C(=C/c2ccc3cc(C)ccc3[n+]2CC)Sc2cc(C)c(C)cc21`, the EC50 in experiment [5] is 337 nM (inconclusive). Usually AC50 stands for the concentration at which the activity in the assay is half-maximal. `COc1cc(NCCCNC(C)C)c2nccc(C)c2c1`: in experiment [6], the AC50 was 49600 nM (active). As to `Nc1ccc2nc3c(O)nc(S)nc3nc2c1`, the EC50 in experiment [7] was 1140 nM (active). Besides, the AC50 in experiment [8] is 3550 nM (active).
